According to patent US20250002475A1 (EPICS THERAPEUTICS, priority 2023, published 2025):

Legend:
[1] = target: T1, recombinant METTL3/METTL14 complex (Homo sapiens, UniProt Q86U44); experiment: METTL3/14 Scintillation Proximity Assay (SPA), RNA methyltransferase activity; assay type: biochemical; settings: 5.31 nM METTL3/14 complex, 250 nM RNA substrate, 1 μM 3H-SAM, 90 min; for compounds marked * best of the two separated forms
T1 construct: purchased Active Motif 311970; host or cells: Sf9 cells
T1 sequence (Q86U44 whole entry): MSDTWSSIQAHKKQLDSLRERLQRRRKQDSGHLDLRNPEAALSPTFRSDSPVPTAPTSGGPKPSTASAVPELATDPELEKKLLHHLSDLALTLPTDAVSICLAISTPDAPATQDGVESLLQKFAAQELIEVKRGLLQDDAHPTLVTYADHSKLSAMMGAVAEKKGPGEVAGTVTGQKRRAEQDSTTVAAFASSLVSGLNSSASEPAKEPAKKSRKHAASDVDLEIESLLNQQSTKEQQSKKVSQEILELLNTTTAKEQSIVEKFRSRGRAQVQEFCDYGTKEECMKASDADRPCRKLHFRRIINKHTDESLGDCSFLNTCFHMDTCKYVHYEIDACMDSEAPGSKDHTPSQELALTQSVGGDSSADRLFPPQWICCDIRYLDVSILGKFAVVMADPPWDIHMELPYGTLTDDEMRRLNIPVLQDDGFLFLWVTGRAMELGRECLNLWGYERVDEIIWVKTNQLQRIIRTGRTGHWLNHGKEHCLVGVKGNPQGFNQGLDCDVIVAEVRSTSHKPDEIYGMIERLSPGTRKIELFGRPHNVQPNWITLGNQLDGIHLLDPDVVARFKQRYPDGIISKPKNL
T1 sequence (Q9HCE5 whole entry partner): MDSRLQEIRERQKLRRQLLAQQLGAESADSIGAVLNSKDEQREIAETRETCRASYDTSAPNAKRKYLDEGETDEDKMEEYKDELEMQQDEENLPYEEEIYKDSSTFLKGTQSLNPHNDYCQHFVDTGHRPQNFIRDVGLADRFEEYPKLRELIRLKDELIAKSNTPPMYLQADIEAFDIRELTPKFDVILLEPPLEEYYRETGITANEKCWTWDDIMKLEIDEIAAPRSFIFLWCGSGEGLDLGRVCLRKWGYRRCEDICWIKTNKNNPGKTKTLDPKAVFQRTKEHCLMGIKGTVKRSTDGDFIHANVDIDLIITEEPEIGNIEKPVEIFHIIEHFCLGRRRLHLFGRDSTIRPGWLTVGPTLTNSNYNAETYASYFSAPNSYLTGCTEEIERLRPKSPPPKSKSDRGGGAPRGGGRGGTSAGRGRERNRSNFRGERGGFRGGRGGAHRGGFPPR

Caov-3 cells = experiment: Caov-3 cellular viability assay (ATP-Lite, 72 h); assay type: cell-based; settings: Homo sapiens, ATP-Lite luminescence, % viability relative to DMSO
Procedure: Caov-3 cell line was purchased from ATCC (ATCC® HTB-75™). Cells were isolated from the ovary of a ovarian cancer patient.
Caov-3 cells are cultured in DMEM (ATCC 30-2002) containing 10% heat-inactivated and 0.22 μm filtered FBS (Gibco 10270-106). The cells are seeded at 2.5E+4cell/cm^2 within the recommended subcultivation ratio of 1:3 to 1:6, as stated on the certificate of analysis issues by the provider of the cells.
Cellular viability assay: Caov-3 cells were plated (50 μL) in 96-well cell culture microplates (PS, F-Bottom black, Cellstar, Greiner 655086) at final concentration of 10000 cells/well. The compounds of the invention were dissolved in DMSO, and a titration curve was generated at 1000× final concentration. Compounds were then diluted 500× in tissue culture medium (RPMI-1640, 10% FBS). Then 50 μl of test compound were added to Caov-3 cells in a final DMSO concentration of 0.1%, final volume 100 μl. A gas permeable sealing membrane was applied to the plate to prevent evaporation (Breathe-Easy sealing membrane, Sigma Z380059-1PK) and cells were incubated for 72 h at 37° C., 5% CO2, 80% RH. After 72 h of treatment, the plates were taken out of the incubator and left for a few minutes at room temperature. 100 μl of the reconstituted reagent ATP-Lite One Step (Perkin Elmer, 6016739) were added to each well. The plates were shaken for 2 min at 700 rpm and placed in the dark for 10 minutes at room temperature before measurement of luminescence intensity with Envision instrument. The raw data were expressed in RLU. Results were expressed in % of viability relative to DMSO control and an IC50 was calculated based on the concentration-response profile of individual compounds.

Kasumi-1 cells = experiment: Kasumi-1 cellular viability assay (ATP-Lite, 72 h); assay type: cell-based; settings: Homo sapiens, ATP-Lite luminescence, % viability relative to DMSO
Summary of the method: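 Kasumi-1 AML cells, 15000/well in RPMI-1640 with 10% FBS, were exposed to compound titrations (0.1% final DMSO) for 72 h at 37 °C, 5% CO2. ATP-Lite One Step luminescence gave % viability versus DMSO control, and IC50 came from the concentration-response.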

| SMILES | IC50 [1] | IC50 (Caov-3 cells) | IC50 (Kasumi-1 cells) |
| --- | --- | --- | --- |
| CC(n1cc(-c2cncc(N3CCCC3)c2)nn1)n1ccc(N2CCC[C@@H](NCC3CC3)C2)cc1=O (single isomer, unassigned) [Compound 176] | ≤ 50 nM | ≤ 500 nM | ≤ 500 nM |
| CC1CN(c2cncc(-c3cn(C(C)n4ccc(N5CCC[C@@H](NCC6CCC6)C5)cc4=O)nn3)c2)C1 (single isomer, unassigned) [Compound 177] | ≤ 50 nM | ≤ 500 nM | ≤ 500 nM |
| CC(n1cc(-c2cncc(N3CCCCC3)c2)nn1)n1ccc(N2CCC[C@@H](NCC3CCC3)C2)cc1=O (single isomer, unassigned) [Compound 178] | ≤ 50 nM | ≤ 500 nM | ≤ 500 nM |
| CC(n1nnc(-c2cncc(N(C)C)c2)n1)n1ccc(N2CCC[C@@H](NCC3CCC3)C2)cc1=O (single isomer, unassigned) [Compound 179] | ≤ 50 nM | ≤ 500 nM | ≤ 500 nM |
| CC(n1cc(-c2cncc(N3CCCC3)n2)nn1)n1ccc(N2CCC[C@@H](NCC3CC3)C2)cc1=O (single isomer, unassigned) [Compound 180] | ≤ 50 nM | ≤ 500 nM | ≤ 500 nM |
| COc1cncc(-c2ncc(C(C)c3ccc(N4CCC[C@@H](NCC5CCC5)C4)cn3)s2)c1 (single isomer, unassigned) [Compound 181] | ≤ 50 nM | 500 to 5000 nM | 500 to 5000 nM |
| CC(n1cc(-c2cncc(N(C)C)n2)nn1)n1ccc(N2CCC[C@@H](NCC3CC3)C2)cc1=O (single isomer, unassigned) [Compound 186] | ≤ 50 nM | ≤ 500 nM | ≤ 500 nM |
| CCOc1cncc(-c2cn(C(C)c3ccc(N4CCC[C@@H](NCC5CCC5)C4)nn3)nn2)c1 (single isomer, unassigned) [Compound 187] | ≤ 50 nM | ≤ 500 nM | 500 to 5000 nM |
| COc1cc(-c2cn(C(C)n3ccc(N4CCC[C@@H](NCC5CCC5)C4)cc3=O)cn2)c2cn[nH]c2c1 (single isomer, unassigned) [Compound 188] | ≤ 50 nM | 500 to 5000 nM | 500 to 5000 nM |
| CC(n1cc(-c2cncc(N3CC4(COC4)C3)c2)nn1)n1ccc(N2CCC[C@@H](NCC3CCC3)C2)cc1=O (single isomer, unassigned) [Compound 191] | ≤ 50 nM | ≤ 500 nM | 500 to 5000 nM |
| CC(n1cc(-c2cncc(N3CC4(CCC4)C3)c2)nn1)n1ccc(N2CCC[C@@H](NCC3CCC3)C2)cc1=O (single isomer, unassigned) [Compound 193] | ≤ 50 nM | ≤ 500 nM | ≤ 500 nM |
| CC(n1cc(-c2cc(N(C)C)cnn2)nn1)n1ccc(N2CCC[C@@H](NCC3CCC3)C2)cc1=O (single isomer, unassigned) [Compound 198] | ≤ 50 nM | 500 to 5000 nM | 500 to 5000 nM |
| COC1CN(c2cncc(-c3cn(C(C)n4ccc(N5CCC[C@@H](NCC6CCC6)C5)cc4=O)nn3)c2)C1 (single isomer, unassigned) [Compound 199] | ≤ 50 nM | ≤ 500 nM | ≤ 500 nM |
| CC(n1cc(-c2cncc(OCC(F)(F)F)c2)nn1)n1ccc(N2CCC[C@@H](NCC3CCC3)C2)cc1=O (single isomer, unassigned) [Compound 200] | ≤ 50 nM | 500 to 5000 nM | 500 to 5000 nM |
| CC(n1cc(-c2cc(N3CCCC3)cnn2)nn1)n1ccc(N2CCC[C@@H](NCC3CC3)C2)cc1=O (single isomer, unassigned) [Compound 206] | ≤ 50 nM | ≤ 500 nM | 500 to 5000 nM |
| CC(n1cc(-c2cncc(N3CC(C(F)F)C3)c2)nn1)n1ccc(N2CCC[C@@H](NCC3CC3)C2)cc1=O (single isomer, unassigned) [Compound 209] | ≤ 50 nM | 500 to 5000 nM | 500 to 5000 nM |
| COc1cc(-c2nnn(C(C)n3ccc(N4CCC[C@@H](NCC5CCC5)C4)cc3=O)n2)c2cn[nH]c2c1 (single isomer, unassigned) [Compound 210] | ≤ 50 nM | ≤ 500 nM | 500 to 5000 nM |
| CC(n1cc(-c2cncc(N3CC4(C3)CC4(F)F)c2)nn1)n1ccc(N2CCC[C@@H](NCC3CC3)C2)cc1=O (single isomer, unassigned) [Compound 211] | ≤ 50 nM | ≤ 500 nM | ≤ 500 nM |

| SMILES | IC50 [1] | IC50 (Caov-3 cells) | IC50 (Kasumi-1 cells) |
| --- | --- | --- | --- |
| CC(n1cc(-c2cncc(-n3ccnc3)c2)nn1)n1ccc(N2CCC[C@@H](NCC3CC3)C2)cc1=O (single isomer, unassigned) [Compound 218] | ≤ 50 nM | 500 to 5000 nM | > 5000 nM |
| CC(c1cnn(-c2cc(N3CCCC3)cnn2)c1)n1ccc(N2CCC[C@@H](NCC3CC3)C2)cc1=O (single isomer, unassigned) [Compound 219] | ≤ 50 nM | ≤ 500 nM | 500 to 5000 nM |
| CC(c1cnn(-c2cncc(N3CCCC3)n2)c1)n1ccc(N2CCC[C@@H](NCC3CC3)C2)cc1=O (single isomer, unassigned) [Compound 220] | ≤ 50 nM | ≤ 500 nM | ≤ 500 nM |
| CC(c1cnn(-c2cncc(N(C)C)n2)c1)n1ccc(N2CCC[C@@H](NCC3CC3)C2)cc1=O (single isomer, unassigned) [Compound 225] | ≤ 50 nM | ≤ 500 nM | ≤ 500 nM |
| CC(n1cnc(-c2cncc(N3CCCC3)n2)c1)n1ccc(N2CCC[C@@H](NCC3CC3)C2)cc1=O (single isomer, unassigned) [Compound 226] | ≤ 50 nM | ≤ 500 nM | ≤ 500 nM |
| CC(n1cc(-c2cncc(N3CCC(F)(F)C3)n2)nn1)n1ccc(N2CCC[C@@H](NCC3CC3)C2)cc1=O (single isomer, unassigned) [Compound 227] | ≤ 50 nM | ≤ 500 nM | ≤ 500 nM |
| CC(n1cnc(-c2cncc(N(C)C)n2)c1)n1ccc(N2CCC[C@@H](NCC3CC3)C2)cc1=O (single isomer, unassigned) [Compound 229] | ≤ 50 nM | ≤ 500 nM | ≤ 500 nM |
| CC(n1cc(-c2cncc(N3CCC(C)(C)C3)n2)nn1)n1ccc(N2CCC[C@@H](NCC3CC3)C2)cc1=O (single isomer, unassigned) [Compound 230] | ≤ 50 nM | ≤ 500 nM | ≤ 500 nM |
| COc1cncc(-c2cn(C(C)n3ccc(N4CCC[C@@H](NCC5CC5)C4)cc3=O)nn2)c1 (single isomer, unassigned) [Compound 232] | ≤ 50 nM | ≤ 500 nM | ≤ 500 nM |
| CC(n1cc(-c2cncc(N3CC4CC4C3)n2)nn1)n1ccc(N2CCC[C@@H](NCC3CC3)C2)cc1=O (single isomer, unassigned) [Compound 234] | ≤ 50 nM | ≤ 500 nM | ≤ 500 nM |
| CC(n1cc(-c2cncc(N3CC4(COC4)C3)n2)nn1)n1ccc(N2CCC[C@@H](NCC3CC3)C2)cc1=O (single isomer, unassigned) [Compound 237] | ≤ 50 nM | 500 to 5000 nM | 500 to 5000 nM |
| CC(n1cc(-c2cncc(N3CC[C@@H](C)C3)n2)nn1)n1ccc(N2CCC[C@@H](NCC3CC3)C2)cc1=O (single isomer, unassigned) [Compound 238] | ≤ 50 nM | ≤ 500 nM | ≤ 500 nM |
| CC(n1cc(-c2cncc(N3CC[C@H](C)C3)n2)nn1)n1ccc(N2CCC[C@@H](NCC3CC3)C2)cc1=O (single isomer, unassigned) [Compound 240] | ≤ 50 nM | ≤ 500 nM | ≤ 500 nM |
| CC(n1cc(-c2cncc(N3CC[C@H](F)C3)n2)nn1)n1ccc(N2CCC[C@@H](NCC3CC3)C2)cc1=O (single isomer, unassigned) [Compound 241] | ≤ 50 nM | ≤ 500 nM | ≤ 500 nM |
| CC(c1cnc(-c2cncc(N3CCCC3)n2)o1)n1ccc(N2CCC[C@@H](NCC3CC3)C2)cc1=O (single isomer, unassigned) [Compound 242] | ≤ 50 nM | ≤ 500 nM | ≤ 500 nM |
| CC(n1cnc(-c2cc(N(C)C)cnn2)c1)n1ccc(N2CCC[C@@H](NCC3CC3)C2)cc1=O (single isomer, unassigned) [Compound 243] | ≤ 50 nM | 500 to 5000 nM | 500 to 5000 nM |
| CC(n1cc(-c2cncc(N3CC[C@@H](F)C3)n2)nn1)n1ccc(N2CCC[C@@H](NCC3CC3)C2)cc1=O (single isomer, unassigned) [Compound 245] | ≤ 50 nM | ≤ 500 nM | ≤ 500 nM |
